Measured values: US20230233569A1 (Revolution Medicines, Inc., priority 2020, published 2023)
Read-outs that look alike come from different tables or passages of the source.

Experiments:
KRAS G13D = KRAS G13D (Homo sapiens, UniProt P01116+P62937, G13D); experiment: Disruption of BRAF RBD interaction with Ras (FRET / MOA assay, with Cyclophilin A); assay type: biochemical
From the text: (§1) This protocol may also be executed substituting other Ras proteins or nucleotides.
(§2) The purpose of this biochemical assay was to measure the ability of test compounds to facilitate ternary complex formation between a nucleotide-loaded K-Ras isoform and Cyclophilin A; the resulting ternary complex disrupts binding to a BRAF^RBD construct, inhibiting K-Ras signaling through a RAF effector. Data is reported as IC50 values.
(§3) Compound was present in plate wells as a 10-point 3-fold dilution series starting at a final concentration of 30 μM. After incubation at 25° C. for 3 hours, a mixture of Anti-His Eu-W1024 and anti-GST allophycocyanin was then added to assay sample wells at final concentrations of 10 nM and 50 nM, respectively, and the reaction incubated for an additional 1.5 hours. […] Compounds that facilitate disruption of a K-Ras:RAF complex were identified as those eliciting a decrease in the TR-FRET ratio relative to DMSO control wells.
as §2, with “BRAF^RBDD” for “BRAF^RBD”

KRAS G13C = KRAS G13C (Homo sapiens, UniProt P01116+P62937, G13C); experiment: as above; assay type: biochemical
From the text: as §1, §2, §3
as §2, with “BRAF^RBDD” for “BRAF^RBD”

KRAS WT = KRAS WT (Homo sapiens, UniProt P01116+P62937); experiment: as above; assay type: biochemical
From the text: as §1, §2, §3
as §2, with “BRAF^RBDD” for “BRAF^RBD”

KRAS G12S = KRAS G12S (Homo sapiens, UniProt P01116+P62937, G12S); experiment: as above; assay type: biochemical
From the text: as §1, §2, §3
as §2, with “BRAF^RBDD” for “BRAF^RBD”

NRAS G12C = NRAS G12C (Homo sapiens, UniProt P01111+P62937, G12C); experiment: as above; assay type: biochemical
From the text: as §1, §2, §3
as §2, with “BRAF^RBDD” for “BRAF^RBD”

KRAS G12V = KRAS G12V (Homo sapiens, UniProt P01116+P62937, G12V); experiment: as above; assay type: biochemical
From the text: as §1, §2, §3
as §2, with “BRAF^RBDD” for “BRAF^RBD”

KRAS G12C = KRAS G12C (Homo sapiens, UniProt P01116+P62937, G12C); experiment: as above; assay type: biochemical
From the text: as §1, §2, §3
as §2, with “BRAF^RBDD” for “BRAF^RBD”

KRAS G12D = KRAS G12D (Homo sapiens, UniProt P01116+P62937, G12D); experiment: as above; assay type: biochemical
From the text: as §1, §2, §3
as §2, with “BRAF^RBDD” for “BRAF^RBD”

Capan-1 (K-Ras G12V) = experiment: CellTiter-Glo cell viability assay, 5-day treatment; assay type: cell-based; settings: Homo sapiens, CAPAN-1, 120 h, 5-day treatment; read-out: Capan-1 Cell Viability assay data (K-Ras G12V, IC50)
Summary of the method: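 Compounds were dispensed directly onto seeded cells and incubated for 5 days, then plates were equilibrated to room temperature for about 30 minutes before luminescence reading. Signals were expressed as percent of the mean DMSO control and fitted with a four-parameter logistic curve.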

[1] = KRAS G13D, read-out: KRAS G13D FRET data IC50
[2] = read-out: KRAS G13C FRET data, IC50
[3] = KRAS WT, read-out: KRAS WT FRET data IC50
[4] = read-out: KRAS G12S FRET data, IC50
[5] = NRAS G12C, read-out: NRAS G12C FRET data IC50
[6] = KRAS G12V, read-out: KRAS G12V FRET data IC50
[7] = read-out: KRAS G12C FRET data, IC50
[8] = read-out: KRAS G12D FRET data, IC50

Sequence of NRAS G12C (P01111 whole entry G12C): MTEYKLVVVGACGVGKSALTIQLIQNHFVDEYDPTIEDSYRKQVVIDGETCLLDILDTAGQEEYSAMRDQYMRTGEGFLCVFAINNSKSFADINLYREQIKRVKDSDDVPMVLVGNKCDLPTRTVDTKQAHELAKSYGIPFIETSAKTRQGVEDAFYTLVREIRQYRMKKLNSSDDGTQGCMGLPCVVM
Sequence of NRAS G12C (P62937 whole entry): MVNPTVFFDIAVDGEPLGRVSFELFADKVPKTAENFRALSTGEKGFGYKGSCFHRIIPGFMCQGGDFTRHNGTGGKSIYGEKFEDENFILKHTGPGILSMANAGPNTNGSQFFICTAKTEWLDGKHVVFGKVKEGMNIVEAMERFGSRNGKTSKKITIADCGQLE
Sequence of KRAS WT (P01116 1-169 isoform P01116-2 limits assumed): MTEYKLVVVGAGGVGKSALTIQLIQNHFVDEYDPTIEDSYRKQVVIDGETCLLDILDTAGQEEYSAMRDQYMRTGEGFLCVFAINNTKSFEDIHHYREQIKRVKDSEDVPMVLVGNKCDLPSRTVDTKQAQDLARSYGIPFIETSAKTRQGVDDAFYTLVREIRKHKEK
Sequence of KRAS WT (P62937 whole entry): as the sequence (P62937 whole entry) above
Sequence of KRAS G12D (P01116 1-169 isoform P01116-2 G12D limits assumed): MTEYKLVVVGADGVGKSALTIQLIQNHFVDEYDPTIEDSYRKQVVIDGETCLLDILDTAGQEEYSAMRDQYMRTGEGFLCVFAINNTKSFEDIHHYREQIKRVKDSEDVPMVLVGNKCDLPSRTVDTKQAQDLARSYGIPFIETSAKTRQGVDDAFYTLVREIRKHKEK
Sequence of KRAS G12D (P62937 whole entry): as the sequence (P62937 whole entry) above
Sequence of KRAS G12V (P01116 1-169 isoform P01116-2 G12V limits assumed): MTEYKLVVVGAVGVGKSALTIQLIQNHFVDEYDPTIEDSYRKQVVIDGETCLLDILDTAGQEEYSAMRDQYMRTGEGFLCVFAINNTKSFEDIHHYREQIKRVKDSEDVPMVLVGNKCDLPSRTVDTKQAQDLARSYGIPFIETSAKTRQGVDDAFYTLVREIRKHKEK
Sequence of KRAS G12V (P62937 whole entry): as the sequence (P62937 whole entry) above
Sequence of KRAS G13C (P01116 1-169 isoform P01116-2 G13C): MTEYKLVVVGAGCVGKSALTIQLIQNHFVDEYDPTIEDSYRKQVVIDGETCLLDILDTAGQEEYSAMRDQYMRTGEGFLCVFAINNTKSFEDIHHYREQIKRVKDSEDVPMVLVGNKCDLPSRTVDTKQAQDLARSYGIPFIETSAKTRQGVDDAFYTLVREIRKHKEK
Sequence of KRAS G13C (P62937 whole entry): as the sequence (P62937 whole entry) above
Sequence of KRAS G12C (P01116 1-169 isoform P01116-2 G12C): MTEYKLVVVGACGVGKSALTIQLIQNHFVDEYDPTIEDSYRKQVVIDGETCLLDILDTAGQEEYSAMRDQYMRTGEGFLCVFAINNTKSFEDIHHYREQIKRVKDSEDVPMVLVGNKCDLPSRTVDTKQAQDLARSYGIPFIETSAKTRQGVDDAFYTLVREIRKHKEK
Sequence of KRAS G12C (P62937 whole entry): as the sequence (P62937 whole entry) above
Sequence of KRAS G12S (P01116 1-169 isoform P01116-2 G12S limits assumed): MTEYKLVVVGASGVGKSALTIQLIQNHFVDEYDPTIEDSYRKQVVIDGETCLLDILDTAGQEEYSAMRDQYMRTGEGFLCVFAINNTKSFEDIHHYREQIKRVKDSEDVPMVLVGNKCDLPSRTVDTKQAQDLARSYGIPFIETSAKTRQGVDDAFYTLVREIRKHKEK
Sequence of KRAS G12S (P62937 whole entry): as the sequence (P62937 whole entry) above
Sequence of KRAS G13D (P01116 1-169 isoform P01116-2 G13D limits assumed): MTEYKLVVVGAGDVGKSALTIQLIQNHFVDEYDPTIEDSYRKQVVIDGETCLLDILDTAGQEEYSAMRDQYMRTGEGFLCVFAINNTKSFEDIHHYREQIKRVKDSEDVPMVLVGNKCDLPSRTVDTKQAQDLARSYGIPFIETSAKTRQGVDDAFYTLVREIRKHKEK
Sequence of KRAS G13D (P62937 whole entry): as the sequence (P62937 whole entry) above

Compound | IC50 (KRAS G13D; [1]) [µM] | IC50 (KRAS G13C; [2]) [µM] | IC50 (KRAS WT; [3]) [µM] | IC50 (KRAS G12S; [4]) [µM] | IC50 (NRAS G12C; [5]) [µM] | IC50 (KRAS G12V; [6]) [µM] | IC50 (KRAS G12C; [7]) [µM] | IC50 (KRAS G12D; [8]) [µM] | IC50 (Capan-1 (K-Ras G12V)) [µM] | also measured
CCn1c(-c2cccnc2[C@H](C)OC)c2c3cc(ccc31)-c1csc(n1)C[C@H](NC(=O)[C@H](C(C)C)N(C)C(=O)[C@H]1CCN(C(=O)C(C)(C)N(C)C)C1)C(=O)N1CCC[C@H](N1)C(=O)OCC(C)(C)C2 [Example A113] | 1 to 10 | 1 to 10 | 1 to 10 | 1 to 10 | 1 to 10 | 1 to 10 | 1 to 10 | 1 to 10 | 1 to 10 | –
CCn1c(-c2cccnc2[C@H](C)OC)c2c3cc(ccc31)-c1cccc(c1)C[C@H](NC(=O)[C@H](C(C)C)N(C)C(=O)[C@H]1CCN(C(=O)CNC)C1)C(=O)N1CCC[C@H](N1)C(=O)OCC(C)(C)C2 [Example A98] | – | – | – | – | – | – | – | – | > 10 | IC50 (KRAS G13D; KRAS G13D FRET data IC50, KRAS G13D): 1 to 10 µM; IC50 (KRAS G13C; KRAS G13C FRET data, IC50): 0.1 to 1 µM; IC50 (KRAS WT; KRAS WT FRET data IC50, KRAS WT): 1 to 10 µM; IC50 (KRAS G12S; KRAS G12S FRET data, IC50): 1 to 10 µM; IC50 (NRAS G12C; NRAS G12C FRET data IC50, NRAS G12C): 0.1 to 1 µM; IC50 (KRAS G12V; KRAS G12V FRET data IC50, KRAS G12V): 1 to 10 µM; IC50 (KRAS G12C; KRAS G12C FRET data, IC50): 0.1 to 1 µM; IC50 (KRAS G12D; KRAS G12D FRET data, IC50): 1 to 10 µM
CCn1c(-c2cnccc2COC)c2c3cc(ccc31)-c1cc(O)cc(c1)C[C@H](NC(=O)[C@H](C(C)C)N(C)C(=O)[C@H]1CCN(C(=O)C(C)(C)N(C)C)C1)C(=O)N1CCC[C@H](N1)C(=O)OCC(C)(C)C2 [Example A8] | – | – | – | – | – | – | – | – | 1 to 10 | –
CCn1c(-c2cc(N3CCN(C)CC3)cnc2[C@H](C)OC)c2c3cc(ccc31)-c1csc(n1)C[C@H](NC(=O)[C@H](C(C)C)N(C)C(=O)N1CC(OC)C1)C(=O)N1CCC[C@H](N1)C(=O)OCC(C)(C)C2 [Example A466] | – | – | – | – | – | – | – | – | < 0.01 | –

The next lines start with results.

IC50 (KRAS G13D; [1]) [µM] | IC50 (KRAS G13C; [2]) [µM] | IC50 (KRAS WT; [3]) [µM] | IC50 (KRAS G12S; [4]) [µM] | IC50 (NRAS G12C; [5]) [µM] | IC50 (KRAS G12V; [6]) [µM] | IC50 (KRAS G12C; [7]) [µM] | IC50 (KRAS G12D; [8]) [µM] | Compound | IC50 (Capan-1 (K-Ras G12V)) [µM] | also measured
1 to 10 | 0.1 to 1 | 1 to 10 | 1 to 10 | 0.1 to 1 | 1 to 10 | 0.1 to 1 | 1 to 10 | CCn1c(-c2cccnc2[C@H](C)OC)c2c3cc(ccc31)-c1cccc(c1)C[C@H](NC(=O)[C@H](C(C)C)N(C)C(=O)[C@H]1CCN(C(=O)CN(C)C)C1)C(=O)N1CCC[C@H](N1)C(=O)OCC(C)(C)C2 [Example A96] | 1 to 10 | –
0.1 to 1 | 0.01 to 0.1 | 0.01 to 0.1 | 0.1 to 1 | 0.1 to 1 | 0.1 to 1 | 0.01 to 0.1 | 0.1 to 1 | C=C[C@@H]1C[C@]1(N)C(=O)N(C)[C@H](C(=O)N[C@H]1Cc2cc(O)cc(c2)-c2ccc3c(c2)c(c(-c2cccnc2[C@H](C)OC)n3CC)CC(C)(C)COC(=O)[C@@H]2CCCN(N2)C1=O)C(C)C [Example A149] | 1 to 10 | –
– | – | – | – | – | 0.01 to 0.1 | – | – | CCn1c(-c2cccnc2[C@H](C)OC)c2c3cc(ccc31)-c1cc(O)cc(c1)C[C@H](NC(=O)[C@H](C(C)C)N(C)C(=O)C1(F)CC1)C(=O)N1CCC[C@H](N1)C(=O)OCC(C)(C)C2 [Example A165] | 0.01 to 0.1 | –
